Test results as given in patent US9566254B2, “Inhibitors and methods of inhibiting bacterial and viral pathogens” (priority 2010, dated 2017).
Where a name gives a salt, the structure may show the parent alone.

Experiments:
Test in all cases: microbe, parasite or virus in culture
Assay type in all cases: cell-based
La Crosse virus (LACV) = settings: La Crosse virus, Vero, read-out: Avg Activity (LACV)
Chlamydophila caviae = settings: Chlamydia caviae, Vero, read-out: Avg Activity (C. Caviae)
vaccinia virus = settings: Orthopoxvirus vaccinia, read-out: Avg Activity (VV)

CC(C)(C)c1ccc(C(=O)NC(=S)Nc2ccc(NC(=O)c3ccccc3Cl)c(O)c2)cc1 [Compound 2, N-[4-[(4-tert-butylbenzoyl)-carbamothioylamino]-2-hydroxy-phenyl]-2-chloro-benzamide]
EC50 (La Crosse virus (LACV)): < 1000 nM
EC50 (Chlamydophila caviae): < 1000 nM
EC50 (vaccinia virus): < 1000 nM

COc1cc(NC(=S)NC(=O)c2ccc(C(C)(C)C)cc2)ccc1N(C)c1ccccc1Cl [Compound 3, 4-tert-butyl-N-[[4-[(2-chlorophenyl)-methylamino]-3-methoxy-phenyl]-carbamothioyl]-benzamide]
EC50 (La Crosse virus (LACV)): < 1000 nM
EC50 (Chlamydophila caviae): < 1000 nM
EC50 (vaccinia virus): < 1000 nM

CC(C)(C)c1ccc(C(=O)NC(=S)Nc2ccc(N)cc2Cl)cc1 [Compound 4, N-[(4-amino-2-chloro-phenyl)carbamothioyl]-4-tert-butyl-benzamide hydrochloride]
EC50 (La Crosse virus (LACV)): < 1000 nM
EC50 (Chlamydophila caviae): < 1000 nM
EC50 (vaccinia virus): < 1000 nM

CNc1ccc(NC(=S)NC(=O)c2ccc(C(C)(C)C)cc2)c(Cl)c1 [Compound 5, 4-tert-butyl-N-[[2-chloro-4-(methylamino)phenyl]-carbamothioyl]benzamide hydrochloride]
EC50 (La Crosse virus (LACV)): < 1000 nM
EC50 (Chlamydophila caviae): < 1000 nM
EC50 (vaccinia virus): < 1000 nM

CC(C)(C)c1ccc(C(=O)NC(=S)Nc2ccc(NC(=O)c3ccccc3)cc2Cl)cc1 [Compound 7, N-[(4-benzamido-2-chloro-phenyl)carbamothioyl]-4-tert-butyl-benzamide]
EC50 (La Crosse virus (LACV)): < 1000 nM
EC50 (Chlamydophila caviae): < 1000 nM
EC50 (vaccinia virus): < 1000 nM

COc1cc(NC(=S)NC(=O)c2ccc(C(C)(C)C)cc2)ccc1NC(=S)c1ccccc1Cl [Compound 8, 4-tert-butyl-N-[[4-[(2-chlorobenzene-carbothioyl)amino]-3-methoxy-phenyl]-carbamothioyl]benzamide]
EC50 (La Crosse virus (LACV)): < 1000 nM
EC50 (Chlamydophila caviae): < 1000 nM
EC50 (vaccinia virus): < 1000 nM

CCS/C(=N\C(=O)c1ccc(C(C)(C)C)cc1)Nc1cc(C)ccc1Cl [Compound 9, (NZ)-4-tert-butyl-N-[(2-chloro-5-methyl-anilino)-ethylsulfanyl-methylene]benzamide]
EC50 (La Crosse virus (LACV)): < 1000 nM
EC50 (Chlamydophila caviae): < 1000 nM
EC50 (vaccinia virus): < 1000 nM

CCS/C(=N\C(=O)c1ccc(C(C)(C)C)cc1)Nc1ccc(NC(=O)c2ccccc2Cl)c(OC)c1 [Compound 10, N-[4-[[(Z)—N-(4-tert-butylbenzoyl)-C-ethylsulfanyl-carbonimidoyl]amino]-2-methoxy-phenyl]-2-chloro-benzamide]
EC50 (La Crosse virus (LACV)): < 1000 nM
EC50 (Chlamydophila caviae): 1000 to 10000 nM
EC50 (vaccinia virus): < 1000 nM

COc1cc(NC(=S)NC(=O)c2ccc(C(C)(C)C)cc2)ccc1NC(=O)c1ccc(CN)cc1 [Compound 12, hydrochloride]
EC50 (La Crosse virus (LACV)): > 25000 nM
EC50 (Chlamydophila caviae): < 1000 nM
EC50 (vaccinia virus): < 1000 nM

Cc1cccc(Cl)c1NC(=S)NC(=O)c1ccc(C(C)(C)C)cc1 [Compound 13, 4-tert-butyl-N-[(2-chloro-6-methyl-phenyl)-carbamothioyl]benzamide]
EC50 (La Crosse virus (LACV)): < 1000 nM
EC50 (Chlamydophila caviae): < 1000 nM
EC50 (vaccinia virus): 1000 to 10000 nM

CCS/C(=N\C(=O)c1ccc(C(C)(C)C)cc1)Nc1ccccc1Cl [Compound 14, (NZ)-4-tert-butyl-N-[(2-chloroanilino)-ethylsulfanyl-methylene]benzamide]
EC50 (La Crosse virus (LACV)): < 1000 nM
EC50 (Chlamydophila caviae): < 1000 nM
EC50 (vaccinia virus): 1000 to 10000 nM

CC(C)(C)c1ccc(C(=O)NC(=S)Nc2cccc(C(F)(F)F)c2Cl)cc1 [Compound 15, 4-tert-butyl-N-[[2-chloro-3-(trifluoromethyl)phenyl]-carbamothioyl]benzamide]
EC50 (La Crosse virus (LACV)): < 1000 nM
EC50 (Chlamydophila caviae): < 1000 nM
EC50 (vaccinia virus): 1000 to 10000 nM

COc1cc(NC(=S)NC(=O)c2ccc(C(C)(C)C)cc2)ccc1NS(=O)(=O)c1cccc2c(N(C)C)cccc12 [Compound 16, 4-tert-butyl-N-[[4-[[5-(dimethylamino)-1-naphthyl]sulfonylamino]-3-methoxy-phenyl]-carbamothioyl]benzamide]
EC50 (La Crosse virus (LACV)): 1000 to 10000 nM
EC50 (Chlamydophila caviae): < 1000 nM
EC50 (vaccinia virus): 1000 to 10000 nM

Cc1cccc(NC(=S)NC(=O)c2ccc(C(C)(C)C)cc2)c1Cl [Compound 19, 4-tert-butyl-N-[(2-chloro-3-methyl-phenyl)-carbamothioyl]benzamide]
EC50 (La Crosse virus (LACV)): 1000 to 10000 nM
EC50 (Chlamydophila caviae): < 1000 nM
EC50 (vaccinia virus): 1000 to 10000 nM

CN(C)c1ccc(NC(=S)NC(=O)c2ccc(C(C)(C)C)cc2)c(Cl)c1 [Compound 22, 4-tert-butyl-N-[[2-chloro-4-(dimethylamino)phenyl]-carbamothioyl]benzamide hydrochloride]
EC50 (La Crosse virus (LACV)): 1000 to 10000 nM
EC50 (Chlamydophila caviae): < 1000 nM
EC50 (vaccinia virus): 1000 to 10000 nM

COc1cc(NC(=S)NC(=N)c2ccc(C(C)(C)C)cc2)ccc1NC(=O)c1ccccc1Cl [Compound 23, N-[4-[(4-tert-butylbenzene-carboximidoyl)-carbamothioylamino]-2-methoxy-phenyl]-2-chloro-benzamide]
EC50 (La Crosse virus (LACV)): 1000 to 10000 nM
EC50 (Chlamydophila caviae): < 1000 nM
EC50 (vaccinia virus): 1000 to 10000 nM

COc1cc(NC(=S)NC(=O)c2ccc(C(C)(C)C)cc2)ccc1NC(=N)c1ccccc1Cl [Compound 24, 4-tert-butyl-N-[[4-[(2-chlorobenzene-carboximidoyl)amino]-3-methoxy-phenyl]-carbamothioyl]benzamide]
EC50 (La Crosse virus (LACV)): 1000 to 10000 nM
EC50 (Chlamydophila caviae): < 1000 nM
EC50 (vaccinia virus): 1000 to 10000 nM

COc1cc(NC(=S)NC(=O)c2ccc(C(C)(C)C)cc2)ccc1NC(=O)CCCCC1SCC2NC(=O)NC21 (centres unmarked) [Compound 25, 4-tert-butyl-N-[[3-methoxy-4-[5-(2-oxo-1,3,3a,4,6,6a-hexahydrothieno[3,4-d]imidazol-4-yl)-pentanoylamino]phenyl]-carbamothioyl]benzamide]
EC50 (La Crosse virus (LACV)): > 25000 nM
EC50 (Chlamydophila caviae): 1000 to 10000 nM
EC50 (vaccinia virus): 1000 to 10000 nM

COc1cc(NC(=S)NC(=O)C2CCCCC2)ccc1NC(=O)c1ccccc1Cl [Compound 26, 2-chloro-N-[4-(cyclohexanecarbonyl-carbamothioylamino)-2-methoxy-phenyl]benzamide]
EC50 (La Crosse virus (LACV)): > 25000 nM
EC50 (Chlamydophila caviae): 10000 to 25000 nM
EC50 (vaccinia virus): 1000 to 10000 nM

COc1cc(NC(=S)NC(=O)c2ccc(C(C)(C)C)cc2)ccc1NC(=O)c1cccc(CN)c1 [Compound 27, 3-(aminomethyl)-N-[4-[(4-tert-butylbenzoyl)-carbamothioylamino]-2-methoxy-phenyl]benzamide hydrochloride]
EC50 (La Crosse virus (LACV)): > 25000 nM
EC50 (Chlamydophila caviae): < 1000 nM
EC50 (vaccinia virus): 1000 to 10000 nM

COc1cc(NC(=S)NC(=O)c2ccc(C(C)(C)C)cc2)ccc1NC(=O)c1ccccc1N [Compound 28, 2-amino-N-[4-[(4-tert-butylbenzoyl)-carbamothioylamino]-2-methoxy-phenyl]benzamide]
EC50 (La Crosse virus (LACV)): > 25000 nM
EC50 (Chlamydophila caviae): < 1000 nM
EC50 (vaccinia virus): 1000 to 10000 nM

CC(C)(C)c1ccc(C(=O)NC(=S)Nc2cc(OC(F)(F)F)ccc2Cl)cc1 [Compound 29, 4-tert-butyl-N-[[2-chloro-5-(trifluoromethoxy)phenyl]-carbamothioyl]benzamide]
EC50 (La Crosse virus (LACV)): > 25000 nM
EC50 (vaccinia virus): 1000 to 10000 nM

COc1cc(NC(=S)NC(=O)c2ccc(C(C)(C)C)cc2)ccc1NC(=O)c1cccnc1 [Compound 30, N-[4-[(4-tert-butylbenzoyl)-carbamothioylamino]-2-methoxy-phenyl]pyridine-3-carboxamide]
EC50 (Chlamydophila caviae): < 1000 nM
EC50 (vaccinia virus): 1000 to 10000 nM

COc1cc(NC(=S)NC(=O)c2ccc(C(C)(C)C)cc2)ccc1NC(=O)c1ccncc1 [Compound 31, N-[4-[(4-tert-butylbenzoyl)-carbamothioylamino]-2-methoxy-phenyl]pyridine-4-carboxamide]
EC50 (Chlamydophila caviae): < 1000 nM
EC50 (vaccinia virus): 1000 to 10000 nM

COc1cc(NC(=S)NC(=O)c2ccc(C(C)(C)C)cc2)ccc1NC(=O)c1ccc(N)cc1 [Compound 32, N-[[4-[(4-aminobenzoyl)amino]-3-methoxy-phenyl]-carbamothioyl]-4-tert-butyl-benzamide hydrochloride]
EC50 (La Crosse virus (LACV)): 10000 to 25000 nM
EC50 (Chlamydophila caviae): < 1000 nM
EC50 (vaccinia virus): 10000 to 25000 nM

CCNC(=S)Nc1ccc(NC(=O)c2ccccc2Cl)c(OC)c1 [Compound 33, 2-chloro-N-[4-(ethylcarbamo-thioylamino)-2-methoxy-phenyl]benzamide]
EC50 (La Crosse virus (LACV)): > 25000 nM
EC50 (Chlamydophila caviae): > 25000 nM
EC50 (vaccinia virus): 10000 to 25000 nM

CCN(C(=S)NC(=O)c1ccc(C(C)(C)C)cc1)c1ccc(NC(=O)c2ccccc2Cl)c(OC)c1 [Compound 34, N-[4-[(4-tert-butylbenzoyl)-carbamothioyl-ethyl-amino]-2-methoxy-phenyl]-2-chloro-benzamide]
EC50 (La Crosse virus (LACV)): > 25000 nM
EC50 (Chlamydophila caviae): 1000 to 10000 nM
EC50 (vaccinia virus): 10000 to 25000 nM

COC(=O)CC(=O)Nc1ccc(NC(=S)NC(=O)c2ccc(C(C)(C)C)cc2)cc1OC [Compound 35, methyl 3-[4-[(4-tert-butylbenzoyl)carbamo-thioylamino]-2-methoxy-anilino]-3-oxo-propanoate]
EC50 (La Crosse virus (LACV)): > 25000 nM
EC50 (Chlamydophila caviae): 1000 to 10000 nM
EC50 (vaccinia virus): 10000 to 25000 nM

CC(C)(C)c1ccc(C(=O)NC(=S)Nc2ccc(Nc3cccnc3)cc2)cc1 [Compound 36, 4-tert-butyl-N-[[4-(3-pyridylamino)phenyl]-carbamothioyl]benzamide hydrochloride]
EC50 (La Crosse virus (LACV)): > 25000 nM
EC50 (Chlamydophila caviae): < 1000 nM
EC50 (vaccinia virus): 10000 to 25000 nM

COc1cc(NC(=S)NC(=O)c2ccc(C(C)(C)C)cc2)ccc1NC(N)=O [Compound 37, 4-tert-butyl-N-[(3-methoxy-4-ureido-phenyl)carbamothioyl]-benzamide]
EC50 (La Crosse virus (LACV)): 1000 to 10000 nM
EC50 (vaccinia virus): > 25000 nM

CC(C)(C)c1ccc(C(=O)NC(=S)Nc2ccc(Nc3ccncc3)cc2)cc1 [Compound 38, 4-tert-butyl-N-[[4-(4-pyridylamino)phenyl]-carbamothioyl]benzamide hydrochloride]
EC50 (La Crosse virus (LACV)): 1000 to 10000 nM
EC50 (Chlamydophila caviae): > 25000 nM
EC50 (vaccinia virus): > 25000 nM

Cc1ccc(C(=O)NC(=S)Nc2ccc(NC(=O)c3ccc(C(C)(C)C)cc3)cc2)cc1 [Compound 41, N-[[4-[(4-tert-butylbenzoyl)amino]phenyl]carbamothioyl]-4-methyl-benzamide]
EC50 (La Crosse virus (LACV)): < 1000 nM
EC50 (Chlamydophila caviae): < 1000 nM
EC50 (vaccinia virus): < 1000 nM

Cc1ccccc1NC(=S)NC(=O)c1ccc(C(C)(C)C)cc1 [Compound 42, 4-tert-butyl-N-(o-tolylcarbamothioyl)-benzamide]
EC50 (La Crosse virus (LACV)): < 1000 nM
EC50 (Chlamydophila caviae): < 1000 nM
EC50 (vaccinia virus): < 1000 nM
